Laboratory results published in patent US8604172B2, “Humanized antibody compositions and methods for binding lysophosphatidic acid” (Lpath, Inc., priority 2009, dated 2013).
Marks after values point to notes of the source that are not given here.

What was measured:
IL-8 in Caki-1 cells = test: LPA-induced IL-8 production in Caki-1 cells; type: cell-based, human; settings: 18:1 LPA (0.2 mM), non-treated cells, average
Description: Three anti-LPA mAbs (B3, B7 and B58) were tested for their abilities to reduce in vitro IL-8 production compared to a non-specific antibody (NS). Caki-1 cells were seeded in 96 well plates and grown to confluency. After overnight serum starvation, cells were treated with 18:1 LPA (0.2 mM) with or without anti-LPA mAb B3, B7, B58 or NS (Non-Specific). After 24 h, cultured supernatants of renal cancer cells (Caki-1), treated with or without LPA and in presence of increasing concentrations of the anti-LPA mAbs B3, B7 and B58, were collected and analyzed for IL-8 levels using a commercially available ELISA kit (Human Quantikine Kit, R&D Systems, Minneapolis, Minn.). […] The inhibition of IL-8 release by the anti-LPA mAbs was also observed in other cancerous cell lines such as the pancreatic cell line Panc-1.

[1] = tested on: IL-8 release in SKOV3 cells; test: LPA-induced IL-8 release in SKOV3 cells; type: cell-based, human; settings: 1 uM LPA alone
Description: (§1) Anti-LPA antibodies inhibit the LPA-dependant release of human CXCL8/IL-8 in conditioned media of SKOV3 ovarian cells. SKOV3 cells (Lot No 4255558, passage 14) were harvested with 2 ml of 1× Trypsin EDTA (Mediatech Inc, Cat. No 25-053-CV) and resuspended in 8 ml of complete medium (10% FBS, Mediatech Inc. Cat. no 35-011-CV). The cells were centrifuged for 5 min ([…]) and re-suspended in 5 ml of complete medium. Cells were counted in duplicate with 0.4% Trypan blue (10 ul cells plus 90 ul Trypan blue, Invitrogen, Cat. No 15250-061) using a hemocytometer. In a 96-well plate, 1×10^5 cells per well were seeded (final volume 100 ul/well). The cells were allowed to attach and form a confluent monolayer by incubating overnight at 37° C. On the following day, cells were gently washed two times with minimum media (1 mg/ml BSA in McCoy's medium with L-glutamine, Mediatech, Cat. No 10-050-CV). The media was adjusted to 1% penicillin/streptomycin (Mediatech, Cat. No 30-002 CI) and 2.2 g/L sodium-bicarbonate (Mediatech, Cat. No 25-035-CI). Next, the cells were serum-starved at 37° C. for exactly 24 h, followed by cytokine stimulation with 1 uM C18:1 LPA (Avanti, Cat. No 857130) dissolved in 1 mg/ml BSA/PBS (Calbiochem, Cat. No 126575) which was pre-incubated in presence or absence of humanized LPA antibody LT3015 (150, 300 or 600 ug/mL) for one hour. Treatments were then added to the cells. After 22 h of cytokine stimulation, the cells were centrifuged for 5 min (13,500 rpm) at 4° C. and the supernatants (cell-conditioned media) were collected. The CXCL8/IL-8 levels in each supernatant were measured using the Quantikine human CXCL8/IL-8 ELISA kit according to vendor instructions (R&D Systems, Minneapolis Minn., Cat. No D8000C). The IL-6 levels were measured by ELISA using the Quantikine human IL-6 immunoassay kit (R&D systems, Cat. No. D6050). Data were analyzed by one-way ANOVA followed by Bonferroni's post test and expressed as human IL-8 or human IL-6 fold increase.

[2] = tested on: IL-6 release in SKOV3 cells; test: LPA-induced IL-6 release in SKOV3 cells; type: cell-based, human; settings: 1 uM LPA alone
Description: as §1, with “The media was adjusted to 1% penicillin/streptomycin (Mediatech, Cat. No 30-002 CI) and 2.2 g/L sodium-bicarbonate (Mediatech, Cat. No 25-035-CI). Next, the cells were serum-starved at 37° C. for exactly 24 h, followed by cytokine stimulation with 1 uM C18:1 LPA (Avanti, Cat. No 857130) dissolved in 1 mg/ml BSA/PBS (Calbiochem, Cat. No 126575) which was pre-incubated in presence or absence of humanized LPA antibody LT3015 (150, 300 or 600 ug/mL) for one hour. Treatments were then added to the cells. After 22 h of cytokine stimulation, the cells were centrifuged for 5 min (13,500 rpm) at 4° C. and the supernatants (cell-conditioned media) were collected.” left out

SKOV3 cells = test: Scratch assay, SKOV3 tumor cell migration; type: cell-based, human; settings: 17 hr
Description: SKOV3 cells were plated at 15,000 cells per well in a 96-well plate. The following day the cells were serum starved in minimal media (McCoy's Media 5a, adjusted to contain L-Glutamine, 2.2 g/L Sodium Bicarbonate, 1% penicillin/streptomycin and 1 mg/ml BSA) for 24 hrs. At time 0 cells were scratched with a p200 pipet tip down the center of each well, washed with minimal media and pictures were taken prior to treatment. Cells were then treated with LPA (C18:1) at 0.2 uM, 1.0 uM and 10 uM concentrations which were pre-incubated at 37° C. with […] in the presence or absence of antibody at 150 ug/ml. Positive control (10% FBS treated cells) and antibody alone added to 1 uM LPA, were also tested. Cells were stimulated for 17 hrs at 37° C. in a 5% CO2 incubator. Pictures were taken again 17 hr post-treatment and % wound closure was measured by adjusting pictures to the same size and measuring the width of the scratch at time 0 and time 17 hr with a ruler. Data were analyzed by Student's t-test.

SKOV3 tumor = test: SKOV3 ovarian tumor progression in nude mice; type: in vivo; settings: Mean ± S.E.
Description: Human mAb LT3015 reduced ovarian tumor SKOV3 progression and circulating cytokines in biological fluids. Nude mice were engrafted with either 10 mg/kg LT3015, vehicle, or 2 mg/kg paclitaxel (Taxol). After 56 days, mice were sacrificed and the peritoneal cavities were analyzed for tumor burden and ascites fluid accumulation. Tumors were harvested and final tumor weights were determined along with ascites volumes. Data were analyzed by ANOVA and student's t-test analysis. […] Serum and ascites levels of IL-6, IL-8, GM-CSF and VEGF were measured using ELISA kits from R&D systems, Minneapolis Minn.

| Compound | increase of IL-8 expression (IL-8 in Caki-1 cells) [%] | Human IL-8 Fold Increase (approx). [1] | Human IL-6 Fold Increase (approx). [2] | Percent wound closure (approx.) (SKOV3 cells; 0.2 uM LPA) [%] | Percent wound closure (approx.) (SKOV3 cells; 1.0 uM LPA) [%] | Percent wound closure (approx.) (SKOV3 cells; 10 uM LPA) [%] | Ascites volume (SKOV3 tumor) [mL] |
| --- | --- | --- | --- | --- | --- | --- | --- |
| Lysophosphatidic acid [LPA, reference compound] | 100 | ~7.1## | ~29## | ~65 | ~81 | ~89 |  |
| CC(=O)O[C@H]1C(=O)[C@@]2(C)[C@H]([C@H](OC(=O)c3ccccc3)[C@]3(O)C[C@H](OC(=O)[C@H](O)[C@@H](NC(=O)c4ccccc4)c4ccccc4)C(C)=C1C3(C)C)[C@]1(OC(C)=O)CO[C@@H]1C[C@@H]2O [Taxol, paclitaxel, reference compound] |  |  |  |  |  |  | 0.2 ± 0.0 |
